Experimental data: patent US5696151A, “Compounds useful for the inhibition of the replication of HIV-1 and HIV-1 mutants” (priority 1995, dated 1997)
Values after ≈ are worked out from the molar mass of the structure shown.

Legend:
Type in all cases: cell-based
[1] = tested on: HIV-1/Lys-138; assay: Inhibition of HIV-1 induced syncytium formation in CEM cells, RT mutant 138-Lys; conditions: Table 2B, day 4, averages of 2 to 3 independent experiments; for EC50: Human immunodeficiency virus 1, CCRF-CEM, 96 h, read-out: Antiviral Activity of Comparative Compounds EC50, 138-Lys
In short: (§1)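 CEM cells (≈300,000/ml) infected with about 100 CCID50 of HIV-1(IIIB) or RT mutant strains, then added to 5-fold serial dilutions of test compounds. Inhibition of virus-induced syncytium formation scored microscopically on day 4 post infection.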

[2] = tested on: CEM cells; assay: in vitro; conditions: Table 2B; CEM cell proliferation; averages of 2 to 3 independent experiments
In short: (§2)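 In CEM cells, the cytostatic value is the compound concentration giving 50% inhibition of cell proliferation. Parallel work used HIV-1(IIIB) and culture-selected resistant strains Lys-138, 181-Cys, 188-His and 188-Leu.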

[3] = tested on: HIV-1(IIIB); assay: Inhibition of HIV-1 induced syncytium formation in CEM cells, wild type; conditions: Table 2B, WT = HIV-1(IIIB), day 4, averages of 2 to 3 independent experiments; for EC50: Human immunodeficiency virus 1, IIIB, CCRF-CEM, 96 h, read-out: Antiviral Activity of Comparative Compounds EC50, WT
In short: as §1

[4] = tested on: HIV-1/188-Leu; assay: Inhibition of HIV-1 induced syncytium formation in CEM cells, RT mutant 188-Leu; conditions: Human immunodeficiency virus 1, CCRF-CEM, 96 h, Table 2B, day 4, averages of 2 to 3 independent experiments, read-out: Antiviral Activity of Comparative Compounds EC50, 188-Leu
In short: as §1

[5] = tested on: HIV-1/106-Ala; assay: Inhibition of HIV-1 induced syncytium formation in CEM cells, RT mutant 106-Ala; conditions: Table 2B, day 4, averages of 2 to 3 independent experiments; for EC50: Human immunodeficiency virus 1, CCRF-CEM, 96 h, read-out: Antiviral Activity of Comparative Compounds EC50, 106-Ala
In short: as §1

[6] = tested on: HIV-1/100-Ile; assay: Inhibition of HIV-1 induced syncytium formation in CEM cells, RT mutant 100-Ile; conditions: Table 2B, day 4, averages of 2 to 3 independent experiments; for EC50: Human immunodeficiency virus 1, CCRF-CEM, 96 h, read-out: Antiviral Activity of Comparative Compounds EC50, 100-Ile
In short: as §1

[7] = tested on: HIV-1/181-Cys; assay: Inhibition of HIV-1 induced syncytium formation in CEM cells, RT mutant 181-Cys; conditions: Table 2B, day 4, averages of 2 to 3 independent experiments; for EC50: Human immunodeficiency virus 1, CCRF-CEM, 96 h, read-out: Antiviral Activity of Comparative Compounds EC50, 181-Cys
In short: as §1

[8] = tested on: HIV-1/103-Asn; assay: Inhibition of HIV-1 induced syncytium formation in CEM cells, RT mutant 103-Asn; conditions: Human immunodeficiency virus 1, CCRF-CEM, 96 h, Table 2B, day 4, averages of 2 to 3 independent experiments, read-out: Antiviral Activity of Comparative Compounds EC50, 103-Asn
In short: as §1

[9] = in vitro; conditions: human, cem cells, CC50 (50% cytostatic concentration), Table 2B; CEM cell proliferation; averages of 2 to 3 independent experiments
In short: as §2

SMILES | Antiviral Activity of Comparative Compounds EC50, 138-Lys [1] [µg/mL] | CC50 (50% cytostatic concentration) [2] [µg/mL] | Antiviral Activity of Comparative Compounds EC50, WT [3] [µg/mL] | EC50 [4] [µg/mL] | Antiviral Activity of Comparative Compounds EC50, 106-Ala [5] [µg/mL] | Antiviral Activity of Comparative Compounds EC50, 100-Ile [6] [µg/mL] | Antiviral Activity of Comparative Compounds EC50, 181-Cys [7] [µg/mL] | EC50 [8] [µg/mL] | EC50 [1] [µg/mL] | CC50 [9] [µg/mL] | EC50 [3] [µg/mL] | EC50 [5] [µg/mL] | EC50 [6] [µg/mL] | EC50 [7] [µg/mL]
Cc1sccc1C(=S)Nc1ccc(Cl)c(C(=O)OC2CCCCC2)c1 [Compound 9] | 0.02 | 6.0 (≈ 15.2 µM) | 0.0032 | ≥ 2 | 0.03 | 0.057 | 0.032 | 0.13 (≈ 0.33 µM) |  |  |  |  |  | 
CC=CCSc1cc(NC(=O)c2ccoc2C)ccc1Cl [Compound 35] |  |  |  | > 2 |  |  |  | 0.55 (≈ 1.71 µM) | 0.7 (≈ 2.18 µM) | 5.9 (≈ 18.3 µM) | 0.16 (≈ 0.497 µM) | 0.8 (≈ 2.49 µM) | 1.5 (≈ 4.66 µM) | 1.6 (≈ 4.97 µM)
CSc1sccc1C(=O)Nc1ccc(Cl)c(C=NOC(C)(C)C)c1 [Compound 36] |  |  |  | > 2 |  |  |  | 1.2 (≈ 3.13 µM) | 0.85 (≈ 2.22 µM) | 7.8 (≈ 20.4 µM) | 0.18 (≈ 0.47 µM) | 0.85 (≈ 2.22 µM) | 1.23 (≈ 3.21 µM) | 1.6 (≈ 4.18 µM)
Cc1occc1C(=O)Nc1ccc(Cl)c(OCCC(C)C)c1 [Compound 37] |  |  |  | > 2 |  |  |  | ≥ 2 | 1.25 (≈ 3.88 µM) | 5 (≈ 15.5 µM) | 0.16 (≈ 0.497 µM) | 1.3 (≈ 4.04 µM) | ≥ 2 | 1.73 (≈ 5.38 µM)
Cc1c(C(=O)Nc2ccc(Cl)c(C=NOC(C)(C)C)c2)ccn1C [Compound 38] |  |  |  | > 2 |  |  |  | ≥ 2 | ≥ 2 | 5.5 (≈ 15.8 µM) | 0.08 (≈ 0.23 µM) | 0.7 (≈ 2.01 µM) | ≥ 2 | > 2
Cc1occc1C(=S)Nc1ccc(Cl)c(OCC(C)(C)C)c1 [Compound 39] |  |  |  | > 2 |  |  |  | 0.7 (≈ 2.07 µM) | 0.5 (≈ 1.48 µM) | 4.1 (≈ 12.1 µM) | 0.15 (≈ 0.444 µM) | > 2 | 1.4 (≈ 4.14 µM) | ≥ 2
CC=CCOc1cc(NC(=O)c2ccoc2C)ccc1Cl [Compound 40] |  |  |  | > 2 |  |  |  | ≥ 2 | 1.2 (≈ 3.92 µM) | 5.8 (≈ 19 µM) | 0.24 (≈ 0.785 µM) | > 2 | 1.4 (≈ 4.58 µM) | > 2
CC1=C(C(=O)Nc2ccc(Cl)c(OCCC(C)C)c2)SCCO1 [Compound 41] |  |  |  | > 2 |  |  |  | ≥ 2 | ≥ 2 | > 100 | 0.28 (≈ 0.787 µM) | ≥ 2 | ≥ 2 | ≥ 2
Cc1sccc1C(=O)Nc1ccc(Cl)c(OCC2CCCC2)c1 [Compound 42] |  |  |  | > 2 |  |  |  | ≥ 2 | ≥ 2 | 5 (≈ 14.3 µM) | 0.36 (≈ 1.03 µM) | ≥ 2 | ≥ 2 | ≥ 2
CC=CCOc1cc(NC(=O)C2=C(CC)OCCS2)ccc1Cl [Compound 43] |  |  |  | > 2 |  |  |  | 1.3 (≈ 3.67 µM) | 1.3 (≈ 3.67 µM) | 11 (≈ 31.1 µM) | 0.65 (≈ 1.84 µM) | 4.5 (≈ 12.7 µM) | 1.2 (≈ 3.39 µM) | > 2
Cc1occc1C(=S)Nc1ccc(Cl)c(OCCC(C)C)c1 [Compound 44] |  |  |  | > 10 |  |  |  | 0.08 (≈ 0.237 µM) | 0.03 (≈ 0.0888 µM) | > 100 | 0.0073 (≈ 0.0216 µM) | 0.06 (≈ 0.178 µM) | 0.035 (≈ 0.104 µM) | 0.08 (≈ 0.237 µM)
CC=CCOc1cc(NC(=O)c2ccsc2C)ccc1Cl [Compound 45] |  |  |  | > 10 |  |  |  | 0.95 (≈ 2.95 µM) | 0.65 (≈ 2.02 µM) | 87 (≈ 270 µM) | 0.15 (≈ 0.466 µM) | 0.85 (≈ 2.64 µM) | 0.6 (≈ 1.86 µM) | 0.5 (≈ 1.55 µM)
Cc1occc1C(=S)Nc1ccc(Cl)c(OC(=O)OC(C)C)c1 [Compound 46] |  |  |  | ≥ 2 |  |  |  | 4 (≈ 11.3 µM) | 0.6 (≈ 1.7 µM) | 25 (≈ 70.7 µM) | 0.37 (≈ 1.05 µM) | 3 (≈ 8.48 µM) | 4.5 (≈ 12.7 µM) | 5.5 (≈ 15.5 µM)
CON=Cc1cc(NC(=O)c2ccoc2C)ccc1OC [Compound 47] |  |  |  | ≥ 10 |  |  |  | ≥ 10 | ≥ 10 | > 100 | 0.23 (≈ 0.798 µM) | ≥ 10 | ≥ 10 | ≥ 10
Cc1sccc1C(=O)Nc1ccc(Cl)c(C(=O)OC2CCCCC2)c1 [Compound 58] | 6.0 | 6.5 (≈ 17.2 µM) | 0.19 |  | 7.0 | 5.5 | 5.0 |  |  |  |  |  |  | 
Cc1sccc1C(=S)Nc1ccc(Cl)c(C(=O)OC2CCCCC2)c1 [Compound 59] | 0.40 | 15 (≈ 38.1 µM) | 0.09 |  | 0.60 | 0.65 | 0.35 |  |  |  |  |  |  | 
Cc1occc1C(=S)Nc1ccc(Cl)c(C=NOC(C)(C)C)c1 [Compound 114] | 0.075 | 5.8 (≈ 16.5 µM) | 0.05 |  | 0.13 | 0.085 | 0.075 |  |  |  |  |  |  | 
